# Experimental data from patent publication US20250388568A1, “NLRP3 INHIBITORS” (Kodiak Sciences Inc., priority 2022, published 2025).
# Legend:
# [1] = test system: IL-1β release in U937 cells after NLRP3 activation; assay: IC50 determination of IL-1β release inhibition in U937 cells; format: cell-based; conditions: Homo sapiens, U-937; PMA-differentiated U937 cells, LPS priming 5 h, nigericin; average of at least three experiments; read-out: IL-1β IC50 (nM) U937 cells
# In short: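 PMA-differentiated U937 cells (90 h) were primed 5 h with 1 μg/mL LPS, pre-incubated 30 min with compound, then stimulated with nigericin for 1 h. Supernatant IL-1β was quantified by MSD electrochemiluminescence. IC50 was derived from IL-1β concentration, with duplicate wells per compound.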
# [2] = test system: IL-1β release in THP-1-ASC-GFP cells after NLRP3 activation; assay: IC50 determination of IL-1β release inhibition in THP-1-ASC-GFP cells; format: cell-based; conditions: THP1-ASC-GFP; THP-1-ASC-GFP cells, LPS priming 4 h, nigericin; average of at least three experiments; read-out: IL-1β IC50 (nM) THP1 cells
# In short: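 THP-1-ASC-GFP cells were primed with 1 μg/mL LPS for 4 h, pretreated with compound for 30 min, then stimulated with nigericin plus compound for 1 h. Secreted IL-1β in supernatants was quantified by MSD electrochemiluminescence immunoassay. IC50 values were calculated from the measured IL-1β concentrations.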
IC50 [1] [nM],IC50 [2] [nM],Compound
< 5,< 5,"Cc1oc(S(=N)(=O)NC(=O)Nc2c3c(cc4c2CCC4)CCC3)cc1CN1CC[C@@H](CO)C1 (stereo partly drawn) [Example 5, N-((1,2,3,5,6,7-hexahydro-s-indacen-4-yl)carbamoyl)-4-(((R)-3-(hydroxymethyl)pyrrolidin-1-yl)methyl)-5-methylfuran-2-sulfonimidamide]"
50 to 500,50 to 500,"CNCc1coc([S@](=N)(=O)NC(=O)Nc2c3c(cc4c2CCC4)CCC3)c1 (single isomer, unassigned) [Example 75]"
5 to 50,< 5,"Cc1oc(S(=N)(=O)NC(=O)Nc2c3c(cc4c2CCC4)CCC3)cc1CN1CC[C@H](CO)C1 (stereo partly drawn) [Example 6, N-((1,2,3,5,6,7-hexahydro-s-indacen-4-yl)carbamoyl)-4-(((S)-3-(hydroxymethyl)pyrrolidin-1-yl)methyl)-5-methylfuran-2-sulfonimidamide]"
